# Data taken from paper PMC10799935, “Discovery of a peripheral 5HT2A antagonist as a clinical candidate for metabolic dysfunction-associated steatohepatitis” (Nature Communications, 2024).
# Entries after “also recorded” stand apart in the source; their conditions may differ.
# Tests used:
# 5HT2A [1] = molecular target: T1, 5HT2A (Homo sapiens, UniProt P28223); assay: Human 5HT2A inhibition assay (FLIPR calcium 6, 5HT stimulus, stably transfected HEK293 cells); assay type: cell-based; set-up: expressed in transfected cells; host or cells: HEK293; conditions: HEK293, 10 μM; read-out: % Inhibition at 10 μM (SD)
# T1 sequence (P28223 whole entry): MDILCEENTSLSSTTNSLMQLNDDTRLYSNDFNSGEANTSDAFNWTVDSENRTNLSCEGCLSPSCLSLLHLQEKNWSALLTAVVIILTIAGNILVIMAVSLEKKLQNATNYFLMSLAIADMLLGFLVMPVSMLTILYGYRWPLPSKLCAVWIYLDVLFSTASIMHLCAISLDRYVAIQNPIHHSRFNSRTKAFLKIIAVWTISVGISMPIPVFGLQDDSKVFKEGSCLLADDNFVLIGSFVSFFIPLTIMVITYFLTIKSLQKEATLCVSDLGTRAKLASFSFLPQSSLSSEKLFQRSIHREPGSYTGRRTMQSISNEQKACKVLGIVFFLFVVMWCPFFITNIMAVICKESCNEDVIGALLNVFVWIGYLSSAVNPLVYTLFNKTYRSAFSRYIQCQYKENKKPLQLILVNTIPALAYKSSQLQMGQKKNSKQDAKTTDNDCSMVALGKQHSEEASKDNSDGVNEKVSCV
# 5HT2A [2] = molecular target: T1, 5HT2A; assay: as above; assay type: cell-based; set-up: expressed in transfected cells; host or cells: HEK293; conditions: for inhibition at 1 µM: HEK293, 1 μM, read-out: % Inhibition at 1 μM (SD)
# Procedure: The derivatives were evaluated at a concentration of 1 μM for their antagonist activity on the 5HT2A receptor (Tables 1–3)[33],[34]. […] The cells were stained with 100 μL of cytosolic calcium dye using the FLIPR calcium 6 assay solution (Molecular devices, #R8190) supplemented with 2.5 mM probenecid (Sigma; P8761) and incubated for 1 h at 37 °C. After 1 h, the designated amount of the compound was treated in each well and incubated for another 1 h at 37 °C. […] Experimental conditions for the 5HT subtypes can be found in the Supporting Information (Supplementary Table 1).
# [3] = Liver microsomal stability (species not stated); assay type: in vitro ADME
# [4] = Liver microsomal stability, human; assay type: in vitro ADME
# Description: (§1) Based on the structure and activity of the two series above, we replaced the alcohol with –CH2.
# [5] = Liver microsomal stability, rat; assay type: in vitro ADME
# Description: as §1
# STZ+HFD mice = STZ+HFD mice (modified STAM) NASH and liver fibrosis model; assay type: in vivo, mouse; conditions: 11c 5 or 10 mg/kg, OCA 10 mg/kg
# Procedure: Mice were intraperitoneally injected with low-dose streptozotocin (40 mg/kg; 5 times) in 7-week-old mice. After injection with STZ, mice were fed an HFD for 16 weeks to induce NASH and liver fibrosis. After 16 weeks of an HFD, mice were fed a standard chow diet to mimic the NASH patient under […]
# nine weeks by oral gavage (Reviewer-only data 4). […]
# inflammation, hepatocyte ballooning, and total NAFLD activity score by the NASH CRN histological scoring system (Reviewer-only data 4B, C). […]
# hepatic fibrosis stage similar to STZ+HFD mice treated with OCA (Reveiwer-only data 4D, E). STZ+HFD mice […]
# function (Reviwer-only data 4F). […]
# group (Reviewer-only data 4G). Furthermore, the expression of genes related to lipogenesis and fibrosis was reduced in the compound 11c-treated group in a dose-dependent manner (Reviewer-only data 4H, I). These […]
# Reviewer-only Data 4. Compound 11c treatment with dietary modification ameliorates NASH and liver fibrosis in a dose-dependent manner. (A) Experimental scheme for in vivo efficacy of compound 11c in […]
# (STZ+HFD mice. (B-I) STZ+HFD mice fed HFD for 16 weeks were switched to SCD for 9 weeks and were treated with vehicle, compound 11c, or OCA by daily oral gavage. (B) Representative liver histology by H&E staining […]
# mg/kg. Scale bars, 100µm. […]
# mice; n = 9 per group. (D) Representative liver histology by Masson’s trichrome staining from vehicle, […]
# Scale bars, 100µm. (E) Fibrosis stage
# (F) Serum AST and ALT levels; n = 9 per […]
# group. (G) Serum TG levels and hepatic TG levels; n = 9 per group. (H) Relative mRNA expression of lipogenesis-related genes as assessed by qRT-PCR in the liver; n = 9 per group. (I) Relative mRNA expression of fibrosis-related genes as assessed by qRT-PCR in the liver; n = 9 per group. Data are expressed as the means ±SEM.
# […], **P<0.01, one-way ANOVA with post hoc Tukey’s test (C, E, F, G, H, I). […]
# Representative liver histology by Masson’s trichrome staining and Sirius Red staining. Scale bars, 100µm. (E) […]
# one-way ANOVA with post hoc Tukey’s test (C, E).
# Comment 2: In "Methods", the author claims to use HEK293 cells (a type of cell derived from kidney embryos) for cell research, however, the data in Table 5 are the results of hepatocyte experiments. What happened? Response: We appreciate the Reviewer’s comment. HEK293 cells were used for inhibition assay (cell research), shown in Table 1-3 of the main manuscript, while, hepatic cell lines were used for chemical profiling and for “Hepatocyte stability” test, shown in Table 5 of the main manuscript. The “Selectivity” of Compound 11c for different 5HT subtypes is elucidated in response to Comment 6.
# We have modified the Methods section to provide clarity.
IC50 (5HT2A [2]) [nM],metabolic stability in the liver microsome (% after 30 min incubation) [4] [%],metabolic stability in the liver microsome (% after 30 min incubation) [5] [%],Compound,inhibition at 10 µM (5HT2A [1]) [%],inhibition at 1 µM (5HT2A [2]) [%],liver microsomal stability (in words) [3],further results
–,–,–,CC(=O)N1CCC(=C2c3ccc(Cl)cc3CCc3cccnc32)CC1 [Compound 3],-1,–,–,–
47,5.33,0.50,O=c1[nH]c2ccccc2c(=O)n1CCN1CCC(=C2c3ccc(Cl)cc3CCc3cccnc32)CC1 [Compound 11d],–,–,metabolically unstable; also recorded: low liver microsomal stability,IC50 (nM) (5HT2A [2]): lower in vitro activity than 11c; % Inhibition at 1 μM (SD) (5HT2A [2]; 1 μM): 102 ± 0.03%
–,–,–,CC(C)NC(=S)N1CCC(=C2c3ccc(Cl)cc3CCc3cccnc32)CC1 [Compound 5],8,–,–,–
–,–,–,"CC[C@H]1[C@@H](O)[C@@H]2[C@H](CC[C@]3(C)[C@@H]([C@H](C)CCC(=O)O)CC[C@@H]23)[C@@]2(C)CC[C@@H](O)C[C@@H]12 [OCA, Obeticholic acid, reference compound]",–,–,–,hepatic fibrosis stage (STZ+HFD mice): improvement
14,17.3,11.7,Cc1nc2n(c(=O)c1CCN1CCC(=C3c4ccc(Cl)cc4CCc4cccnc43)CC1)CCCC2 [Compound 11b],–,92.63 ± 0.6,metabolically unstable; also recorded: rapidly metabolized in the liver microsome,–

Compound,IC50 (5HT2A [2]) [nM],metabolic stability in the liver microsome (% after 30 min incubation) [4] [%],metabolic stability in the liver microsome (% after 30 min incubation) [5] [%],inhibition at 10 µM (5HT2A [1]) [%],inhibition at 1 µM (5HT2A [2]) [%],liver microsomal stability (in words) [3],further results
CN1CCC(=C2c3ccc(Cl)cc3CCc3cccnc32)CC1 [Compound 6],119,–,–,95 ± 0.31,90 ± 0.62,–,–
